Assay results published in publication doi:10.1101/2021.10.22.465361v1 (biorxiv, 2021).

These compounds were tested against T1, FABP7 (Brain fatty acid binding protein) (Homo sapiens, UniProt O15540) (assay: microscale thermophoresis).
T1 sequence (O15540 2-132): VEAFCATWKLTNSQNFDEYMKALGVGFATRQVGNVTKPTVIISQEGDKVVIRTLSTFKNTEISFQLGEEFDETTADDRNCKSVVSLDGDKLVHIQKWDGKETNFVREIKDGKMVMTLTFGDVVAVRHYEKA

Kd, ~500 nM:
CC/C=C\C/C=C\C/C=C\C/C=C\C/C=C\C/C=C\CCC(=O)O [DHA, docosahexaenoic acid]
CCCCCCCC/C=C\CCCCCCCC(=O)O [OA, oleic acid]
CCCCCCCCCCCCCCCCCC(=O)O [SA, stearic acid]
